Assay results as given in patent US6313132A, “Therapeutically active diarylpropylamines; their pharmaceutically acceptable salts; a method for their preparation and method for their use” (Pharmacia AB, priority 1999, dated 2001).
Structures can show the parent of a compound that is named as a salt. Where two headings read alike, the source gives them in different places.

Molecular target: T1, muscarinic receptor (Cavia porcellus, UniProt H0W1Z3)
T1 construct: Smooth muscle strips of the urinary bladder were dissected in a Krebs-Henseleit solution; from tissue; host or cells: guinea pig urinary bladder smooth muscle strips
Assay: Functional in vitro studies: antagonism of carbachol-induced contraction of urinary bladder smooth muscle strips
Format: cell-based, guinea pig

[1] = male guinea pig urinary bladder strips, carbachol agonist, 60 min incubation with antagonist, Krebs-Henseleit pH 7.4, 37° C., KB from dose ratios (Schild), read-out: KB-value
[2] = male guinea pig urinary bladder strips, carbachol agonist, 60 min incubation with antagonist, Krebs-Henseleit pH 7.4, 37° C., KB from dose ratios (Schild), 60 min, read-out: KB-value

T1 sequence (H0W1Z3 1-590): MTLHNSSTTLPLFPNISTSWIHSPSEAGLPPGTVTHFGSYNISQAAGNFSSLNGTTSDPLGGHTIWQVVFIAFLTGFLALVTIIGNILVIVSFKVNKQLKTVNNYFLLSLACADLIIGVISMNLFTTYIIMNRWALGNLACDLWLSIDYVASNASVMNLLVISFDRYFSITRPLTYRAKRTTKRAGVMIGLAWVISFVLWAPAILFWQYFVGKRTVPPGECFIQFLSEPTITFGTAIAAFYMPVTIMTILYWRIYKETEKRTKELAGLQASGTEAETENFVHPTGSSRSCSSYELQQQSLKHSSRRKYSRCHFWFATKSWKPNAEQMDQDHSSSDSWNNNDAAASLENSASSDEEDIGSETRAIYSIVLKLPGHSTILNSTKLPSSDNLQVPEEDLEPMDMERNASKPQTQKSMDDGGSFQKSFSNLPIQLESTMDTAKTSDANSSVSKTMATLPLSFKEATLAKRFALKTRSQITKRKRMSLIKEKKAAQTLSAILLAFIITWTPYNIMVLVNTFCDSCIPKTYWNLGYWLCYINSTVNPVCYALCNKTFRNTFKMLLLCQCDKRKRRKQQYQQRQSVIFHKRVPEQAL
Protocol: Functional in Vitro Studies
Male guinea pigs, weighing about 300 g, were killed by a blow on the neck and exsanguinated. Smooth muscle strips of the urinary bladder were dissected in a Krebs-Henseleit solution (pH 7.4). The strip preparations were vertically mounted between two hooks in thermostatically controlled (37° C.) organ baths (5 ml). One of the hooks was adjustable and connected to a force transducer (FT 03, Grass Instruments). The Krebs-Henseleit solution was continuously bubbled with carbogen gas (93.5% O2 /6.5% CO2) to maintain the pH at 7.4. Isometric tension was recorded by a Grass Polygraph (Model 79D). A resting tension of approximately 5 mN was initially applied on each muscle strip and the preparations were allowed to stabilise for at least 45 min. The resting tension was repeatedly adjusted and the preparations were washed several times during the stabilisation period.
Carbachol (carbamylcholine chloride) was used as the standard muscarinic receptor agonist. In each experiment, the viability of the preparations and the reproducibility of their contractile responses were initially tested by two consecutive additions of a submaximal concentration (3×10^-6 M) of carbachol. A concentration-response curve to carbachol was then generated by cumulative addition of carbachol to the organ-bath (i.e., stepwise increase of the agonist concentration until the maximal contractile response was reached), followed by washing out and a resting period of at least 15 min. before a fix concentration of the test compound (antagonist) was added to the organ-bath. After 60 min. of incubation with the antagonist, a second cumulative concentration-responsecurve to carbachol was generated. Responses were expressed as percent of the maximal response to carbachol. EC50 -values for carbachol in the absence (control) and presence of antagonist were graphically derived and dose ratios (r) were calculated. Dissociation constants, KB, for the antagonists were calculated using equation (1) (Schild, H. I., Br. J. Pharmacol. Chemother. 1949, 4, 277-280), where [A] is the concentration of test compound:

Kb [1] [nM]	Compound	also measured
2290	COc1ccc(C(CCN(C(C)C)C(C)C)c2cccs2)c(OC)c1 (stereo not drawn) [Example 44, N,N-Diisopropyl-3-(2,4-dimethoxyphenyl)-3-(2-thienyl)propanamine fumarate]	–
172	CC(C)N(CCc1ccc(O)c([C@H](CCN(C(C)C)C(C)C)c2ccccc2)c1)C(C)C [Example 18, (R)-N,N-Diisopropyl-3-[5-(2-diisopropylaminoethyl)-2-hydroxyphenyl]-3-phenylpropanamine hydrochloride]	–
499	Cc1ccc(O)c(C(CCN(CCOCCO)C(C)C)c2ccccc2)c1 (stereo not drawn) [Example 1, N-(5-Hydroxy-3-oxapentyl)-N-isopropyl-3-(2-hydroxy-5-methylphenyl)-3-phenylpropanamine hydrochloride]	–
154	CCN(CC)CCC(c1ccccc1)c1cccs1 (stereo not drawn) [Example 50, fumarate]	–
–	CC(C)N(CC[C@H](c1ccccc1)c1cc(C(O)CO)ccc1O)C(C)C (single isomer, unassigned; (-)) [Example 16, (-)-N,N-Diisopropyl-3(R)-[5-(1(S*),2-dihydroxyethyl) 2-hydroxyphenyl]-3-phenylpropanamine fumarate]	Kb [2]: 32 nM
–	CC(C)N(CCC(c1ccccc1)c1cnc[nH]1)C(C)C (stereo not drawn) [Example 36, N,N-Diisopropyl-3-(imidazol-4(5)-yl)-3-phenylpropanamine dihydrochloride]	Kb: 2640 nM
29	COc1ccccc1C(CCN(C(C)C)C(C)C)c1cccs1 (stereo not drawn) [Example 43, N,N-Diisopropylamine-3-(2-methoxyphenyl)-3-(2-thienyl)propanamine, fumarate]	–
10	CC(C)N(CCC(c1ccccc1)c1ccccc1F)C(C)C (stereo not drawn) [Example 6, N,N-Diisopropyl-3-(2-fluorophenyl)-3-phenylpropanamine hydrochloride]	–
707	Cn1cccc1C(CCN1CCCC1)c1ccccc1 (stereo not drawn) [Example 60, 3-(N-Methylpyrrol-2-yl)-3-phenyl-1-pyrrolidinopropane fumarate]	–
139	CCNCc1ccc(O)c([C@H](CCN(C(C)C)C(C)C)c2ccccc2)c1 [Example 30, N,N-Diisopropyl-3-(5-ethylaminomethyl-2-hydroxyphenyl)-3-phenylpropanamine]	–
360	Cc1ccc(O)c(C(CCN(C(C)C)C(C)C)c2cccs2)c1 (single isomer, unassigned) [Example 56, (S*) N,N-Diisopropyl-3-(2-hydroxy-5-methylphenyl)-3-(2-thienyl)propanamine]	–
1.18	CC(C)N(CC[C@H](c1ccccc1)c1cc(CCO)ccc1O)C(C)C [Example 12, (R)-N,N-Diisopropyl-3-[2-hydroxy-5-(2-hydroxyethyl)phenyl]-3-phenylpropanamine hydrochloride]	–
13	CC(C)N(CC[C@H](c1ccccc1)c1cc(C=O)ccc1O)C(C)C [Example 7, (R)-N,N-Diisopropyl-3-(5-formyl-2-hydroxyphenyl)-3-phenylpropanamine hydrochloride]	–
590	CN(CCC(c1ccccc1)c1cccs1)C1CCCCC1 (stereo not drawn) [Example 49, N-Cyclohexyl-N-methyl-3-phenyl-3-(2-thienyl)propanamine hydrochloride]	–
3.5	CC(C)N(CC[C@H](c1ccccc1)c1cc(CCCCCCO)ccc1O)C(C)C [Example 17, (R)-[N,N-Diisopropyl-3-[2-hydroxy-5-(6-hydroxyhexyl)phenyl]-3-phenylpropanamine hydrochloride]	–
–	CC(C)N(CC[C@H](c1ccccc1)c1cc(C(O)CO)ccc1O)C(C)C (single isomer, unassigned; (+)) [Example 15, (+)-N,N-Diisopropyl-3(R)-[5-(1(R*),2-dihydroxyethyl)-2-hydroxyphenyl]-3-phenylpropanamine fumarate]	Kb [2]: 15 nM
350	c1ccc(C(CCN2CCCC2)c2cccs2)cc1 (stereo not drawn) [Example 52, N-[3-Phenyl-3-(2-thienyl)propyl]pyrrolidine fumarate]	–
31	CC(C)N(CCC(c1ccccc1)c1cccs1)C(C)C (stereo not drawn) [Example 48, N,N-Diisopropyl-3-phenyl-3-(2-thienyl)propanamine, hydrochloride]	–
207	CC(C)N(CCC(c1ccccc1)c1nccs1)C(C)C (stereo not drawn) [Example 38, N,N-Diisopropyl-3-phenyl-3-(thiazol-2-yl)propanamine hydrochloride]	–
3320	CC(C)NCCC(c1ccccc1)c1cc(C(=O)O)ccc1O (stereo not drawn) [Example 20, N-Isopropyl-3-(5-carboxy-2-hydroxyphenyl)-3-phenylpropanamine hydrochloride]	–
1.5	CC(C)N(CC[C@H](c1ccccc1)c1cc(CCCO)ccc1O)C(C)C [Example 29, (R) -N,N-Diisopropyl-3-[2-hydroxy-5-(3-hydroxypropyl)phenyl]-3-phenylpropanamine hydrochloride]	–
1770	CC(C)N(CCC(c1ccccc1)c1cnco1)C(C)C (stereo not drawn) [Example 35, N,N-Diisopropyl-3-(oxazol-5-yl)-3-phenylpropanamine hydrochloride]	–
36	CN(CCC(c1ccccc1)c1ccccc1O)C1CCCC1 (stereo not drawn) [Example 32, N-Cyclopentyl-N-methyl-3-(2-hydroxyphenyl)-3-phenylpropanamine hydrochloride]	–

Kb [1] [nM]	Compound	also measured
286	CC(C)N(CCC(c1cccs1)c1ccc(O)cc1O)C(C)C (stereo not drawn) [Example 42, N,N-Diisopropyl-3-(2,4-dihydroxyphenyl)-3-(2-thienyl)propanamine]	–
14	CN(CCC(c1ccccc1)c1ccccc1O)C1CCC1 (stereo not drawn) [Example 31, N-Cyclobutyl-N-methyl-3-(2-hydroxyphenyl)-3-phenylpropanamine hydrochloride]	–
91	COc1ccccc1C(CCN(C)C(C)C)c1cccs1 (stereo not drawn) [Example 47, N-Isopropyl-N-methyl-3-(2-methoxyphenyl)-3-(2-thienyl)propanamine fumarate]	–
7.6	CC(C)N(CCC(c1cccs1)c1ccccc1O)C(C)C (stereo not drawn) [Example 41, N,N-Diisopropyl-3-(2-hydroxyphenyl)-3-(2-thienyl)-propanamine fumarate]	–
154	c1ccc(C(CCN2CCCCC2)c2cccs2)cc1 (stereo not drawn) [Example 53, N-[3-Phenyl-3-(2-thienyl)propyl]piperidine hydrochloride]	–
56	CC(C)N(CCC(c1ccccc1)c1ccccc1N)C(C)C (stereo not drawn) [Example 33, N,N-Diisopropyl-3-(2-aminophenyl)-3-phenylpropanamine hydrochloride]	–
431	CC(C)N(CC[C@@H](c1ccccc1)c1cc(CCO)ccc1O)C(C)C [Example 11, (S)-N,N-Diisopropyl-3-[2-hydroxy-5-(2-hydroxyethyl)phenyl]-3-phenylpropanamine hydrochloride]	–
336	CC(C)N(CCC(c1cccnc1)c1ccccc1O)C(C)C (stereo not drawn) [Example 5, N,N-Diisopropyl-3-(2-hydroxyphenyl)-3-(3-pyridyl)-propanamine dihydrochloride]	–
15	CC(=O)c1ccc(O)c([C@H](CCN(C(C)C)C(C)C)c2ccccc2)c1 [Example 13, (R)-N,N-Diisopropyl-3-(5-acetyl-2-hydroxyphenyl)-3-phenylpropanamine hydrochloride]	–
2.9	CCOCc1ccc(O)c([C@H](CCN(C(C)C)C(C)C)c2ccccc2)c1 [Example 19, (R)-N,N-Diisopropyl-3-(5-ethoxymethyl-2-hydroxyphenyl)-3-phenylpropanamine]	–
1.91	CC(C)N(CC[C@H](c1ccccc1)c1cc(CCC#N)ccc1O)C(C)C [Example 24, (R)-N,N-Diisopropyl-3-[5-(2-cyanoethyl)-2-hydroxyphenyl]-3-phenylpropanamine hydrochloride]	–
2	Cc1ccc(O)c(C(CCN(C(C)C)C(C)C)c2cccs2)c1 (single isomer, unassigned) [Example 55, (R*) N,N-Diisopropyl-3-(2-hydroxy-5-methylphenyl)-3-(2-thienyl)propanamine]	–
520	CC(C)N(CCC(c1ccccc1)c1ncco1)C(C)C (stereo not drawn) [Example 37, N,N-Diisopropyl-3-(oxazol-2-yl)-3-phenylpropanamine hydrochloride]	–
690	CC(C)N(CCC(c1ccccc1)c1cccn1C)C(C)C (stereo not drawn) [Example 59, N,N-Diisopropyl-3-(N-methylpyrrol-2-yl)-3-phenylpropanamine fumarate]	–
7.1	CC(C)N(CC[C@H](c1ccccc1)c1cc(N)ccc1O)C(C)C [Example 27, (R)-(N,N-Diisopropyl-3-(5-amino-2-hydroxyphenyl)-3-phenylpropanaminedihydrochloride]	–
51	COc1cccc(C(CCN(C(C)C)C(C)C)c2cccs2)c1 (stereo not drawn) [Example 45, N,N-Diisopropyl-3-(3-methoxyphenyl)-3-(2-thienyl)propanamine hydrochloride]	–
118	CC(C)N(C)CCC(c1ccccc1)c1cccs1 (stereo not drawn) [Example 51, N-Isopropyl-N-methyl-3-phenyl-3-(2-thienyl)propanamine hydrochloride]	–
2.8	CC(C)N(CC[C@H](c1ccccc1)c1cc(CCCN)ccc1O)C(C)C [Example 22, (R)-N,N-Diisopropyl-3-[5-(3-aminopropyl)-2-hydroxyphenyl]-3-phenylpropanamine dihydrochloride]	–
132	CC(C)N(CCC(c1ccccc1)c1ccccc1C(F)(F)F)C(C)C (stereo not drawn) [Example 4, N,N-Diisopropyl-3-(2-trifluoromethylphenyl)-3-phenylpropanamine hydrochloride]	–
286	COc1ccc(C(CCN(C(C)C)C(C)C)c2cccs2)cc1 (stereo not drawn) [Example 46, N,N-Diisopropyl-3-(4-methoxyphenyl)-3-(2-thienyl)propanamine hydrochloride]	–
803	CC(C)N(CCC(c1ccccc1)c1nc2ccccc2o1)C(C)C (stereo not drawn) [Example 34, N,N-Diisopropyl-3-(benzoxazol-2-yl)-3-phenylpropanamine, hydrochloride]	–
236	Cc1ccc(O)c(C(CCN(C)C2CCCCC2)c2ccccc2)c1 (stereo not drawn) [Example 3, N-Cyclohexyl-N-methyl-3-(2-hydroxy-5-methylphenyl)-3-phenylpropanamine hydrochloride]	–
